In patent publication US8487093B2, “β-lactamase inhibitors” (Merck Sharp & Dohme Corp., priority 2008, dated 2013):
Where two headings read alike, the source gives them in different places.

Experiments:
KPC-2 (K. pneumoniae) = KPC-2 (K. pneumoniae) (Klebsiella pneumoniae, UniProt Q9F663); experiment: biochemical
AmpC (P. aeruginosa) = AmpC (P. aeruginosa) (Pseudomonas aeruginosa (strain ATCC 15692 / DSM 22644 / CIP 104116 / JCM 14847 / LMG 12228 / 1C / PRS 101 / PAO1), UniProt P24735); experiment: biochemical
Protocol: The Class C enzyme activities were measured in the presence of the test inhibitor in spectrophotometric assay against the commercially available substrate, nitrocefin. The enzyme AmpC (P. aeruginosa.), and the substrate, were dissolved in 100 mM KH2PO4 buffer (pH 7). The buffer also contains 0.005% BSA. The test inhibitor was dissolved in DMSO and diluted 1:20 in the assay, resulting in a final concentration range of 50 μM to 0.0002 μM. In a 96-well microplate, the test inhibitor was incubated with the beta-lactamase enzyme for 40 minutes at ambient temperature, the substrate solution was added, and the incubation continued for another 40 minutes. […] The IC50 value was determined from semi logarithmic plots of enzyme inhibition versus inhibitor concentration, with a curve generated using a 4-parameter fit.

[1] = Table 3, read-out: K.p. KPC-2 IC50
[2] = Table 3, read-out: P.a. AmpC IC50

KPC-2 (K. pneumoniae), sequence (Q9F663 25-293 limits assumed): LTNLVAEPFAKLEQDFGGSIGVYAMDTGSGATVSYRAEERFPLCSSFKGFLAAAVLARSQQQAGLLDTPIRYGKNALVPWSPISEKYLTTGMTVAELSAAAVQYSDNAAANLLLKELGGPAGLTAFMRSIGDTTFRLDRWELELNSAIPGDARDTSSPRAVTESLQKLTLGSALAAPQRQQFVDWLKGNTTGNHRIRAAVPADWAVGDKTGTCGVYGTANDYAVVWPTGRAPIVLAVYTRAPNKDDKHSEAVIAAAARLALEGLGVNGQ
AmpC (P. aeruginosa), sequence (P24735 27-397): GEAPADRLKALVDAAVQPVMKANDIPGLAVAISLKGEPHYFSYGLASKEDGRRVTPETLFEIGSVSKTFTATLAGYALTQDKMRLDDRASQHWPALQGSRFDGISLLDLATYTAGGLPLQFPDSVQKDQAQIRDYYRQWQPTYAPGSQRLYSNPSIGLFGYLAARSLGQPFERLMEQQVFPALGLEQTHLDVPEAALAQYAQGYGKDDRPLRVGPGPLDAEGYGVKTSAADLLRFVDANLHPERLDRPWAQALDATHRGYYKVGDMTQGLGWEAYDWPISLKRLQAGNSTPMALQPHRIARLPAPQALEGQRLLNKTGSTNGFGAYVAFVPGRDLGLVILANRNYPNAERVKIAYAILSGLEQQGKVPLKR

| Compound | IC50 (KPC-2 (K. pneumoniae); [1]) [nM] | IC50 (AmpC (P. aeruginosa); [2]) [nM] | IC50 (AmpC (P. aeruginosa)) [nM] | further results |
| --- | --- | --- | --- | --- |
| O=C(Nc1ccc2c(c1)CCN2)[C@@H]1CC[C@@H]2CN1C(=O)N2OS(=O)(=O)O [Example 66] | 41 | 56 |  |  |
| O=C(Nc1cnccn1)[C@@H]1CC[C@@H]2CN1C(=O)N2OS(=O)(=O)O [Example 83] | 58 | 6 |  |  |
| NC(=O)c1ccc(NC(=O)[C@@H]2CC[C@@H]3CN2C(=O)N3OS(=O)(=O)O)cc1 [Example 68] | 30 | 7 |  |  |
| CNCc1cccc(NC(=O)[C@@H]2CC[C@@H]3CN2C(=O)N3OS(=O)(=O)O)c1 [Example 61] | 78 |  | 22 |  |
| O=C(Nc1ccc(CN2CCCC2)cc1)[C@@H]1CC[C@@H]2CN1C(=O)N2OS(=O)(=O)O [Example 63] | 85 | 22 |  |  |
| NCc1cccc(NC(=O)[C@@H]2CC[C@@H]3CN2C(=O)N3OS(=O)(=O)O)c1 [Example 58] | 104 |  | 34 |  |
| NCc1ccc(NC(=O)[C@@H]2CC[C@@H]3CN2C(=O)N3OS(=O)(=O)O)cc1 [Example 57] | 72 | 20 |  |  |
| O=C(N[C@H]1CCNC[C@H]1F)[C@@H]1CC[C@@H]2CN1C(=O)N2OS(=O)(=O)O [Example 15, (2S,5R)—N-[(3R,4S)-3-Fluoropiperidin-4-yl]-7-oxo-6-(sulfooxy)-1,6-diazabicyclo[3.2.1]octane-2-carboxamide] | 130 |  | 49 |  |
| O=C(O[C@H]1CNCC[C@@H]1F)[C@@H]1CC[C@@H]2CN1C(=O)N2OS(=O)(=O)O [Example 101] | 15 |  | 81 |  |
| O=C(O[C@H]1CNC[C@@H]1F)[C@@H]1CC[C@@H]2CN1C(=O)N2OS(=O)(=O)O [Example 106] | 10 |  | 200 |  |
| O=C(N[C@H]1CCN(C2CCNCC2)C1=O)[C@@H]1CC[C@@H]2CN1C(=O)N2OS(=O)(=O)O [Example 33] | 21 |  | 620 |  |
| CN1CCC(NC(=O)[C@@H]2CC[C@@H]3CN2C(=O)N3OS(=O)(=O)O)CC1 [Example 23] | 240 | 500 |  |  |
| CC1(COC(=O)[C@@H]2CC[C@@H]3CN2C(=O)N3OS(=O)(=O)O)CCNCC1 [Example 113] | 8 | 36 |  |  |
| NC1CCN(C(=O)[C@@H]2CC[C@@H]3CN2C(=O)N3OS(=O)(=O)O)CC1 [Example 50] | 8 | 820 |  |  |
| O=C(Nc1cc(C2CCNCC2)ccn1)[C@@H]1CC[C@@H]2CN1C(=O)N2OS(=O)(=O)O [Example 78] | 470 | 0.8 |  |  |
| O=C(OC1CCNCC1)[C@@H]1CC[C@@H]2CN1C(=O)N2OS(=O)(=O)O [Example 93] | 9 |  | 170 |  |
| O=C(NC(CO)C1CCNCC1)[C@@H]1CC[C@@H]2CN1C(=O)N2OS(=O)(=O)O (some centres unmarked) [Example 41] | 320 |  | 700 |  |
| CC1(C)[C@H](C(=O)O)N2C(=O)C[C@H]2S1(=O)=O [Sulbactam, sulbactam, reference compound] |  |  |  | IC50 (KPC-2 (K. pneumoniae); Table 2, read-out: K.p. KPC-2 IC50): 33000 nM; IC50 (AmpC (P. aeruginosa); Table 2, read-out: P.a. AmpC IC50): 17000 nM |
| O=C(N[C@@H]1CCNC[C@@H]1F)[C@@H]1CC[C@@H]2CN1C(=O)N2OS(=O)(=O)O [Example 25] | 270 |  | 20 |  |
| CNCc1ccc(NC(=O)[C@@H]2CC[C@@H]3CN2C(=O)N3OS(=O)(=O)O)cc1 [Example 60] | 56 | 18 |  |  |
| O=C(NCCN1CCCCC1)[C@@H]1CC[C@@H]2CN1C(=O)N2OS(=O)(=O)O [Example 45] | 150 | 180 |  |  |
| O=C(NC[C@H]1CNCCCO1)[C@@H]1CC[C@@H]2CN1C(=O)N2OS(=O)(=O)O [Example 43] |  |  | 15 | IC50 (KPC-2 (K. pneumoniae); K.p. KPC-2 IC50, Table 3): 100 nM |

| Compound | IC50 (KPC-2 (K. pneumoniae); [1]) [nM] | IC50 (AmpC (P. aeruginosa); [2]) [nM] | IC50 (AmpC (P. aeruginosa)) [nM] | further results |
| --- | --- | --- | --- | --- |
| O=C(O[C@@H]1CCNC[C@H]1F)[C@@H]1CC[C@@H]2CN1C(=O)N2OS(=O)(=O)O [Example 99] | 8 | 40 |  |  |
| O=C(Nc1ccc(N2CCCC2)cn1)[C@@H]1CC[C@@H]2CN1C(=O)N2OS(=O)(=O)O [Example 82] | 10 | 4 |  |  |
| O=C(O[C@@H]1CCNC1)[C@@H]1CC[C@@H]2CN1C(=O)N2OS(=O)(=O)O [Example 94] | 40 |  | 3000 |  |
| O=C(N[C@@H]1CCCNC[C@@H]1F)[C@@H]1CC[C@@H]2CN1C(=O)N2OS(=O)(=O)O [Example 35] | 150 | 13 |  |  |
| O=C(NC1CNC1)[C@@H]1CC[C@@H]2CN1C(=O)N2OS(=O)(=O)O [Example 20] | 17 | 1000 |  |  |
| O=C(NC1CCCNC1)[C@@H]1CC[C@@H]2CN1C(=O)N2OS(=O)(=O)O (single isomer, unassigned) [Example 19b] | 240 | 480 |  |  |
| O=C([C@@H]1CC[C@@H]2CN1C(=O)N2OS(=O)(=O)O)N1CC2(CCNCC2)C1 [Example 52] | 1000 |  | 590 |  |
| O=C(Nc1ccc(N2CCOCC2)cn1)[C@@H]1CC[C@@H]2CN1C(=O)N2OS(=O)(=O)O [Example 81] | 17 | 5 |  |  |
| NCCOC(=O)[C@@H]1CC[C@@H]2CN1C(=O)N2OS(=O)(=O)O [Example 110] | 30 | 610 |  |  |
| NS(=O)(=O)c1ccc(NC(=O)[C@@H]2CC[C@@H]3CN2C(=O)N3OS(=O)(=O)O)cc1 [Example 69] | 22 | 7 |  |  |
| O=C(O[C@@H]1CCNC[C@@H]1F)[C@@H]1CC[C@@H]2CN1C(=O)N2OS(=O)(=O)O [Example 97] | 26 | 49 |  |  |
| O=C(Nc1ccnc(N2CCNCC2)n1)[C@@H]1CC[C@@H]2CN1C(=O)N2OS(=O)(=O)O [Example 85] | 20 | 260 |  |  |
| O=C(O[C@H]1CCNC[C@H]1F)[C@@H]1CC[C@@H]2CN1C(=O)N2OS(=O)(=O)O [Example 98] | 9 | 46 |  |  |
| O=C(N[C@@H]1CNC[C@H]1O)[C@@H]1CC[C@@H]2CN1C(=O)N2OS(=O)(=O)O [Example 29] | 250 | 2500 |  |  |
| O=C(O[C@@H]1CCCNCC1)[C@@H]1CC[C@@H]2CN1C(=O)N2OS(=O)(=O)O [Example 92] | 6400 | 33000 |  |  |
| O=C(Nc1ccc2c(c1)CCNC2)[C@@H]1CC[C@@H]2CN1C(=O)N2OS(=O)(=O)O [Example 16, (2S,5R)-7-Oxo-6-(sulfooxy)-N-(1,2,3,4-tetrahydroisoquinolin-6-yl)-1,6-diazabicyclo[3.2.1]octane-2-carboxamide] | 19 |  | 14 |  |
| N[C@@H]1CNC[C@H]1NC(=O)[C@@H]1CC[C@@H]2CN1C(=O)N2OS(=O)(=O)O [Example 28] | 660 | 740 |  |  |
| N[C@@H]1CCN(C(=O)[C@@H]2CC[C@@H]3CN2C(=O)N3OS(=O)(=O)O)C1 [Example 54] | 3200 | 840 |  |  |
| O=C(O[C@H]1CCNC[C@@H]1F)[C@@H]1CC[C@@H]2CN1C(=O)N2OS(=O)(=O)O [Example 100] | 4 | 33 |  |  |
| O=C(OCCN1CCCCC1)[C@@H]1CC[C@@H]2CN1C(=O)N2OS(=O)(=O)O [Example 111] | 20 | 1200 |  |  |
| CN1CCN=C1NC(=O)[C@@H]1CC[C@@H]2CN1C(=O)N2OS(=O)(=O)O [Example 87] | 840 | 200 |  |  |
